Structures are written as SMILES. Counter-ions that a name gives are not always drawn.

Data set [1] is described as follows: Retention of water of crystallization on heated drying under reduced pressure. The class given is physicochemical. As to conditions: 80° C. An excerpt:
Inventive crystal form B of compound (I) is a hydrate crystal form, and can be obtained using a combination of solvents that includes water. Alcohols such as ethanol and 2-propanol are preferred as the solvent used in combination with water. For example, the crystal form can be obtained by dissolving compound (I) in a mixed solvent containing ethanol and water at a ratio of 1:1 (80×volume), concentrating and then drying. The drying can comprise natural drying, drying under reduced pressure, heated drying, or heated drying under reduced pressure.

The nature of data set [2]: Storage stability: total related substances by liquid chromatography before and after storage. The class given is physicochemical. As to conditions: for total amount of related substances (produced impurities), at the start: before storage; for total amount of related substances (produced impurities), at the start / total amount of related substances (produced impurities), after 3 months: liquid chromatography, related substances measured to ≥0.03%; for total amount of related substances (produced impurities), after 3 months: tightly sealed glass vessel, relative humidity 75° C. How it is done:
The storage stability of the compound (I) crystal form A obtained in example 1 was compared with that of the free-form crystals obtained in comparative example 1.
The respective crystals were introduced into a glass vessel which was then tightly sealed and stored at 40° C., relative humidity […] for 3 months; the amount of related substances before and after storage was measured by liquid chromatography; the results are shown in Table 1. The values are the total amount of related substances, which are produced impurities, as measured to ≥0.03%.

Take `CCc1nc2c(Cl)ccc(OCC(=O)O)c2c(OC(F)F)c1Cc1ccc(Cl)cc1.NCCCC[C@H](N)C(=O)O` [crystal form B of compound (I), [8-chloro-3-(4-chlorobenzyl)-4-difluoro-methoxy-2-ethylquinolin-5-yloxy]acetic Acid L-Lysine Salt in Crystal Form B]: in data set [1], the “loss of water of crystallization” value was “no water of crystallization is lost even at 80 °C”.

One may read the melting point as the temperature of the solid-liquid transition. `CCc1nc2c(Cl)ccc(OCC(=O)O)c2c(OC(F)F)c1Cc1ccc(Cl)cc1` (as salt: salt) [Free-form crystals, [8-chloro-3-(4-chlorobenzyl)-4-difluoromethoxy-2-ethylquinolin-5-yloxy]acetic Acid] came in with a melting point of 141 °C.

In the case of `CCc1nc2c(Cl)ccc(OCC(=O)O)c2c(OC(F)F)c1Cc1ccc(Cl)cc1` [Free-form crystals, [8-chloro-3-(4-chlorobenzyl)-4-difluoromethoxy-2-ethylquinolin-5-yloxy]acetic Acid, reference compound], the “total amount of related substances (produced impurities), at the start” value in data set [2] came to 1.37%. Moreover, the “total amount of related substances (produced impurities), after 3 months” value in data set [2] (40° C.) is 1.95%.

Take `CCc1nc2c(Cl)ccc(OCC(=O)O)c2c(OC(F)F)c1Cc1ccc(Cl)cc1.NCCCC[C@H](N)C(=O)O` [Compound (I) crystal form A, [8-chloro-3-(4-chlorobenzyl)-4-difluoro-methoxy-2-ethylquinolin-5-yloxy]acetic Acid L-Lysine Salt in Crystal Form A]: in data set [2] (40° C., relative humidity 75, 3 months), the “storage stability compared with the free-form crystals” value is on record as “better storage stability than the free-form crystals”. The “total amount of related substances (produced impurities), at the start” value in data set [2] worked out at 0.53%. Besides, the “total amount of related substances (produced impurities), after 3 months” value in data set [2] (40° C.) was found to be 0.59%.

The record behind these values is US10626089B2, “Quinoline derivative in crystal form” (GB001, Inc., priority 2016, dated 2020).
